Experimental data reported in US20250160327A1, “USE OF CHROMENE OR CHROMANE DERIVATIVES AS HERBICIDAL AGENTS” (ECOLE POLYTECHNIQUE, priority 2022, published 2025).

System: Arabidopsis thaliana ecotype Col-0 seedlings
Assay: Phytotoxicity test on Arabidopsis thaliana seedlings in hydroponics, visual analysis of chlorosis
Type: in vivo
Conditions: for herbicidal activity: at the concentration tested (125 pM), 48 h; for Activity after 48h: herbicidal activity, concentration of 125 pM, 48 h after application, seedlings at the cotyledon stage, max 1% DMSO
Procedure: Biological tests have been carried out under axenic conditions on Arabidopsis thaliana ecotype Col-0 seedlings cultured in hydroponics at the cotyledon stage. Sterilised seeds have been sown in microplates (10 seeds per well containing 200 μL of distilled water) and cultured for 10-13 days at 22° C. under a 16 h/8 h (day/night) photoperiod lighting. The treatment has been carried out by replacing the culture medium with an equivalent volume of water containing the molecule to be tested dissolved in DMSO. The maximum DMSO concentration in the treated wells was 1% by volume. A control has therefore been set up with the presence of DMSO at this concentration. The phytotoxicity of the treatment has been evaluated after 48 h of culture, by visual analysis of the chlorosis induced.
By way of comparison, tests have also been carried out under the same conditions as for compounds (Ia1), (Ia2), (Ia3) and (IC1), but with two comparative compounds not forming part of the invention: • a compound (2) including a diphenol ring in place of the chromene ring, and • a compound (3) including a chromene ring but not including an -L-Ar group. All compounds have been tested at a concentration of 125 pM.
Herbicidal activity is indicated by A for Active in the event that the plant is killed, i.e. when both cotyledons have lost all their green coloration, 48 h after application of the product.
The absence of herbicidal activity is indicated by “N” for Not active, in the case where no biological activity is observed

Structure (SMILES)	herbicidal activity	Activity after 48h
Oc1cc(O)cc(CCc2ccccc2)c1 [Compound 2]	no herbicidal activity	N
Cc1cc(O)c2c(c1)OC(C)(C)C=C2 [Compound 3]	no herbicidal activity	N
